Results as given in patent publication US20220361496A1, “HERBICIDE COMPOSITIONS” (UPL CORPORATION LIMITED, priority 2019, published 2022).

How the values were obtained:
Type in all cases: in vivo
Brachiaria plantaginea = assay: Pre-emergence herbicidal efficacy, % control of Brachiaria plantaginea; conditions: for % Control 35 DAA Brachiaria plantaginea: 35 DAA (Table 3)
Procedure: (§1) Experiments were carried out evaluate the efficacy, selectivity and synergism of propisochlor combinations when applied at soybean pre-emergence.
(§2) The evaluation for the damage on undesired weeds caused by the compositions was carried out using a scale from 0 to 100%, compared to the untreated control plants. Here, 0 means no damage and 100 means complete destruction of the plants.
(§3) The tables 1 below relate to the herbicidal activity, of the individual actives and the combinations applied in pre-emergence application at 35 days after administration (DAA) treatment.

Spermacoce verticillata = assay: Pre-emergence herbicidal efficacy, % weed control of Spermacoce verticillata
Procedure: as §1, §2, §3

Ipomoea hederifolia = assay: Pre-emergence herbicidal efficacy, % weed control of Ipomoea hederifolia
Procedure: as §1, §2, §3

Brachiaria decumbens = assay: Pre-emergence herbicidal efficacy, % control of Brachiaria decumbens
Procedure: as §1, §2

Ipomoea grandifolia = assay: Pre-emergence herbicidal efficacy, % control of Ipomoea grandifolia
Procedure: as §1, §2

Cenchrus echinatus = assay: Pre-emergence herbicidal efficacy, % control of Cenchrus echinatus
Procedure: as §1, §2

**Q.** Which “% Control of Brachiaria plantaginea 35 DAA” value (Brachiaria plantaginea; 20 g ai/ha) does the source give for `CCOc1nc(F)cc2nc(S(=O)(=O)Nc3c(Cl)cccc3Cl)nn12` [Diclosulam] here?
**A.** 50.0%

**Q.** For `Cc1nn(-c2cc(NS(C)(=O)=O)c(Cl)cc2Cl)c(=O)n1C(F)F` [Sulfentrazone], which “% Weed control 35 DAA Spermacoce verticillata” value (Spermacoce verticillata; 75 g ai/ha) is on record?
**A.** 92.25%

**Q.** And the “% Control 35 DAA Brachiaria plantaginea” value (Brachiaria plantaginea; 150 g ai/ha)?
**A.** 65.00%

**Q.** And the “% Weed control 35 DAA Ipomoea hederifolia” value (Ipomoea hederifolia; 75 g ai/ha)?
**A.** 98.00%

**Q.** Which “% Control of Brachiaria decumbens 7 DAA” value (Brachiaria decumbens; 26.6 g ai/ha) does the source give for `CC(C)C1(C)N=C(c2ncccc2C(=O)O)NC1=O` (stereo not drawn) [imazapyr] here?
**A.** 30%

**Q.** And the “% Control of Brachiaria decumbens 14 DAA” value (Brachiaria decumbens; 26.6 g ai/ha)?
**A.** 12.5%

**Q.** And the “% Control of Brachiaria decumbens 21 DAA” value (Brachiaria decumbens; 26.6 g ai/ha)?
**A.** 6.3%

**Q.** And the “% Control of Brachiaria decumbens 28 DAA” value (Brachiaria decumbens; 26.6 g ai/ha)?
**A.** 2.5%

**Q.** And the “% Control of Ipomoea grandifolia 7 DAA” value (Ipomoea grandifolia; 66.6 g ai/ha)?
**A.** 16.3%

**Q.** What about the “% Control of Ipomoea grandifolia 14 DAA” value (Ipomoea grandifolia; 66.6 g ai/ha) of the same compound?
**A.** 30.0%

**Q.** And the “% Control of Ipomoea grandifolia 21 DAA” value (Ipomoea grandifolia; 66.6 g ai/ha)?
**A.** 51.3%

**Q.** What about the “% Control of Ipomoea grandifolia 28 DAA” value (Ipomoea grandifolia; 66.6 g ai/ha) of the same compound?
**A.** 62.5%

**Q.** And the “% Control of Ipomoea grandifolia 35 DAA” value (Ipomoea grandifolia; 66.6 g ai/ha)?
**A.** 63.8%

**Q.** What about the “% Control - Cenchrus echinatus 7 DAA” value (Cenchrus echinatus; 26.6 g ai/ha) of the same compound?
**A.** 3.8%

**Q.** And the “% Control - Cenchrus echinatus 28 DAA” value (Cenchrus echinatus; 26.6 g ai/ha)?
**A.** 0.0%

**Q.** What about the “% Control - Cenchrus echinatus 35 DAA” value (Cenchrus echinatus; 26.6 g ai/ha) of the same compound?
**A.** 0.0%

**Q.** `CC(C)C1(C)N=C(c2nc3ccccc3cc2C(=O)O)NC1=O` (stereo not drawn) [imazaquin] was tested. Which “% Control of Brachiaria decumbens 7 DAA” value (Brachiaria decumbens; 80.5 g ai/ha) did it give?
**A.** 30%

**Q.** What about the “% Control of Brachiaria decumbens 14 DAA” value (Brachiaria decumbens; 80.5 g ai/ha) of the same compound?
**A.** 22.5%

**Q.** What about the “% Control of Brachiaria decumbens 21 DAA” value (Brachiaria decumbens; 80.5 g ai/ha) of the same compound?
**A.** 21.3%

**Q.** And the “% Control of Brachiaria decumbens 28 DAA” value (Brachiaria decumbens; 80.5 g ai/ha)?
**A.** 18.8%

**Q.** And the “% Control - Cenchrus echinatus 7 DAA” value (Cenchrus echinatus; 80.5 g ai/ha)?
**A.** 18.8%

**Q.** And the “% Control - Cenchrus echinatus 28 DAA” value (Cenchrus echinatus; 80.5 g ai/ha)?
**A.** 10.0%

**Q.** What about the “% Control - Cenchrus echinatus 35 DAA” value (Cenchrus echinatus; 80.5 g ai/ha) of the same compound?
**A.** 6.3%

**Q.** How did the “% Weed control 35 DAA Spermacoce verticillata” value (Spermacoce verticillata; 525 g ai/ha) turn out when `CCc1cccc(C)c1N(COC(C)C)C(=O)CCl` [propisochlor] was run?
**A.** 92.75%

**Q.** And the “% Weed control 35 DAA Spermacoce verticillata” value (Spermacoce verticillata; 675 g ai/ha)?
**A.** 95.75%

**Q.** What about the “% Control of Brachiaria decumbens 7 DAA” value (Brachiaria decumbens; 540 g ai/ha) of the same compound?
**A.** 89.5%

**Q.** What about the “% Control of Brachiaria decumbens 14 DAA” value (Brachiaria decumbens; 540 g ai/ha) of the same compound?
**A.** 85.8%

**Q.** And the “% Control of Brachiaria decumbens 21 DAA” value (Brachiaria decumbens; 540 g ai/ha)?
**A.** 78.8%

**Q.** What about the “% Control of Brachiaria decumbens 28 DAA” value (Brachiaria decumbens; 540 g ai/ha) of the same compound?
**A.** 70%

**Q.** What about the “% Control of Brachiaria decumbens 7 DAA” value (Brachiaria decumbens; 1080 g ai/ha) of the same compound?
**A.** 92.8%

**Q.** And the “% Control of Brachiaria decumbens 14 DAA” value (Brachiaria decumbens; 1080 g ai/ha)?
**A.** 91%

**Q.** What about the “% Control of Brachiaria decumbens 21 DAA” value (Brachiaria decumbens; 1080 g ai/ha) of the same compound?
**A.** 85%

**Q.** And the “% Control of Brachiaria decumbens 28 DAA” value (Brachiaria decumbens; 1080 g ai/ha)?
**A.** 76.3%

**Q.** What about the “% Control of Brachiaria plantaginea 35 DAA” value (Brachiaria plantaginea; 1200 g ai/ha) of the same compound?
**A.** 84.50%

**Q.** And the “% Control 35 DAA Brachiaria plantaginea” value (Brachiaria plantaginea; 1200 g ai/ha)?
**A.** 84.50%

**Q.** And the “% Weed control 35 DAA Ipomoea hederifolia” value (Ipomoea hederifolia; 525 g ai/ha)?
**A.** 26.25%

**Q.** What about the “% Weed control 35 DAA Ipomoea hederifolia” value (Ipomoea hederifolia; 675 g ai/ha) of the same compound?
**A.** 27%

**Q.** And the “% Control of Ipomoea grandifolia 7 DAA” value (Ipomoea grandifolia; 540 g ai/ha)?
**A.** 81.3%

**Q.** And the “% Control of Ipomoea grandifolia 14 DAA” value (Ipomoea grandifolia; 540 g ai/ha)?
**A.** 87.0%

**Q.** And the “% Control of Ipomoea grandifolia 21 DAA” value (Ipomoea grandifolia; 540 g ai/ha)?
**A.** 87.5%

**Q.** What about the “% Control of Ipomoea grandifolia 28 DAA” value (Ipomoea grandifolia; 540 g ai/ha) of the same compound?
**A.** 91.3%

**Q.** And the “% Control of Ipomoea grandifolia 35 DAA” value (Ipomoea grandifolia; 540 g ai/ha)?
**A.** 91.8%

**Q.** What about the “% Control - Cenchrus echinatus 7 DAA” value (Cenchrus echinatus; 540.0 g ai/ha) of the same compound?
**A.** 91.3%

**Q.** And the “% Control - Cenchrus echinatus 28 DAA” value (Cenchrus echinatus; 540.0 g ai/ha)?
**A.** 75.8%

**Q.** What about the “% Control - Cenchrus echinatus 35 DAA” value (Cenchrus echinatus; 540.0 g ai/ha) of the same compound?
**A.** 65.0%

**Q.** What about the “% Control - Cenchrus echinatus 7 DAA” value (Cenchrus echinatus; 1080.0 g ai/ha) of the same compound?
**A.** 95.3%

**Q.** What about the “% Control - Cenchrus echinatus 28 DAA” value (Cenchrus echinatus; 1080.0 g ai/ha) of the same compound?
**A.** 85.0%

**Q.** What about the “% Control - Cenchrus echinatus 35 DAA” value (Cenchrus echinatus; 1080.0 g ai/ha) of the same compound?
**A.** 80.0%
